Results on four compounds are retold here after publication PMC8482771 (ACS Omega, 2021).

Common to all, as to assay type: cell-based
Data set [1] deals with T1, h-P2X7R (Homo sapiens, UniProt Q99572).
T1 sequence (Q99572 1-595): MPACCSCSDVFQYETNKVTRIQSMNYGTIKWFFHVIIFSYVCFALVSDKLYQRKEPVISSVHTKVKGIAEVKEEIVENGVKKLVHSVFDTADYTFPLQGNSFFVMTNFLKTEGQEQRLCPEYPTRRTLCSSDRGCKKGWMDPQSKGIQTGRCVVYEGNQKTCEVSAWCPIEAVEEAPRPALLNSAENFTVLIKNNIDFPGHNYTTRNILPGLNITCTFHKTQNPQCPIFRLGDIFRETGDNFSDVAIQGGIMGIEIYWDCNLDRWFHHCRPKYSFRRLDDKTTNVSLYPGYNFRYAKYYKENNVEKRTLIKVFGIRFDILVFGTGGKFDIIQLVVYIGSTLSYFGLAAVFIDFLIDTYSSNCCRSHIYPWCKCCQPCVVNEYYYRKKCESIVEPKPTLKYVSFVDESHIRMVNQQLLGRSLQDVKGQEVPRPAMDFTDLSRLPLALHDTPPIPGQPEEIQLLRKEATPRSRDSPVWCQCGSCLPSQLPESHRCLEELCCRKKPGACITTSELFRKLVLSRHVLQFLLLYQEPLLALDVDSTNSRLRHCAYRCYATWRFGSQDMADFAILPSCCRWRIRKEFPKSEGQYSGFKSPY

The nature of a further data set: Cytotoxicity assay. The note with it: human, nontransfected 1321N1 astrocytoma cells.
The target of data set [2] is T2, h-P2X2R (Homo sapiens, UniProt Q9UBL9).
T2 sequence (Q9UBL9 1-471): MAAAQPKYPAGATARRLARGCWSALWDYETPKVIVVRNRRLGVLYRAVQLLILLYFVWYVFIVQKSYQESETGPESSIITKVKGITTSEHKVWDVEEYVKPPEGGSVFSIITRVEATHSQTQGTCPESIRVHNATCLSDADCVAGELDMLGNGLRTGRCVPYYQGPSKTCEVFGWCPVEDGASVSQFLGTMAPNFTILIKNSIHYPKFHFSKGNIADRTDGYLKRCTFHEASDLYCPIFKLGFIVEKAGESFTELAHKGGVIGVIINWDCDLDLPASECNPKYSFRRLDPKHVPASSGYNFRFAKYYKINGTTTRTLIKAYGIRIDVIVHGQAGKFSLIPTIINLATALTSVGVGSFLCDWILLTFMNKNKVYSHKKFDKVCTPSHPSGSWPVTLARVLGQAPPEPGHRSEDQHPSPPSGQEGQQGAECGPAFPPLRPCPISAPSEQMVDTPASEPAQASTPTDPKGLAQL
Nature of the data set: Ca2+ influx assay.

The target of data set [3] is T3, h-P2X4R (Homo sapiens, UniProt Q99571).
T3 sequence (Q99571 1-388): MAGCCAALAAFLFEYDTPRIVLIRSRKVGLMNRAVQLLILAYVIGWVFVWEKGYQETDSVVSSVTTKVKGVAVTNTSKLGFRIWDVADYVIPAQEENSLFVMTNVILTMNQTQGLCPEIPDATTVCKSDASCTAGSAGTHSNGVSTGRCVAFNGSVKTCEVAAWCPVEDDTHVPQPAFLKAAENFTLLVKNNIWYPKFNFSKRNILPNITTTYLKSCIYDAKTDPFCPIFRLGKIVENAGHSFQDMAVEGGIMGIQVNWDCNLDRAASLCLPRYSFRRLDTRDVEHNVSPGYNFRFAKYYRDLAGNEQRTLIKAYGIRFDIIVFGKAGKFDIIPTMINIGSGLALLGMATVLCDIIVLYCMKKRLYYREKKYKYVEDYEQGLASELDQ
Nature of the data set: Ca2+ influx assay.

The target in a further data set is h-P2X5 receptor (Homo sapiens, UniProt Q93086). Nature of the data set: Ca2+ influx assay. Particulars: for inhibition at 50 µM: 1321-N1, read-out: h-P2X5 % inhibition.
h-P2X5 receptor, sequence (Q93086 whole entry): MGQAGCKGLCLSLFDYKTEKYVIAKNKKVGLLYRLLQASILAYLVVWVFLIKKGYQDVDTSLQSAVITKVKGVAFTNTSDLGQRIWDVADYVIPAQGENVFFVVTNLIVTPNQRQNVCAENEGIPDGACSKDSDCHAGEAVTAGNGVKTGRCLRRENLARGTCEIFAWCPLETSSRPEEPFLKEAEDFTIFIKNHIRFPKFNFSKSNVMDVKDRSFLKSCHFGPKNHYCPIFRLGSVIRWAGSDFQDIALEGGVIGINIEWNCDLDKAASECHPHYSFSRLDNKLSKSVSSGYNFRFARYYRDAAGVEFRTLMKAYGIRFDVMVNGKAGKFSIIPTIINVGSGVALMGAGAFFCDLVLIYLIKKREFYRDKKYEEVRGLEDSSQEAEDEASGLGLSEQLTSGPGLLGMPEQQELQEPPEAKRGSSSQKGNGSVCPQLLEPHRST
In data set [4] the target is T1, h-P2X7R. Nature of the data set: Ca2+ influx assay.
Data set [5] concerns the target T2, h-P2X2R. Nature of the data set: Mode of inhibition: ATP dose-response curve without and with inhibitor, h-P2X2R.
The target in data set [6] is T3, h-P2X4R. Nature of the data set: Mode of inhibition: ATP dose-response curve without and with inhibitor, h-P2X4R.

Some results are limits rather than exact numbers.

Turning to “2′/3′-O-(4-benzoylbenzoyl)adenosine-5′-triphosphate [BzATP, reference compound]”, the concentration giving a half-maximal response (EC50) – broadly, the midpoint of the concentration-response curve – on h-P2X7R [1] (read-out: EC50 of BzATP-induced response, BzATP without inhibitor) was 5500 nM.
With `CC(=NNC(=O)c1ccccc1NS(C)(=O)=O)c1ccc(N)cc1` [6h, N-(2-(2-(1-(4-Aminophenyl)ethylidene)hydrazinecarbonyl)phenyl)methanesulfonamide], the cytotoxicity at 24 h, 50 µM in the data set “Cytotoxicity assay” worked out at 18.5 ± 1.22%. The IC50 (usually the concentration that inhibits the measured activity by half) against h-P2X2R [2] was 320 ± 10 nM; against h-P2X4R [3] it was > 50000 nM; against h-P2X5 receptor, > 50000 nM; against h-P2X7R [4], 1100 ± 210 nM. Moreover, the inhibition (commonly how much of the control response was suppressed) at 50 µM at h-P2X4R [3] (1321-N1, read-out: h-P2X4 % inhibition) was determined as 34%; at h-P2X5 receptor it was 10%. The “mechanism of receptor inhibition” value on h-P2X2R [5] (h-P2X2) and at h-P2X7R [1] was “negative allosteric modulator” throughout.
Take `CC(=NNC(=O)c1ccccc1NS(C)(=O)=O)c1sccc1Cl` [7e, N-(2-(2-(1-(3-Chlorothiophen-2-yl)ethylidene)hydrazinecarbonyl)phenyl)methanesulfonamide]: the cytotoxicity at 24 h, 50 µM in “Cytotoxicity assay” came to 8.33 ± 0.8%. Besides, the half-inhibitory concentration (IC50) is 2170 ± 20 nM against h-P2X2R [2], 1610 ± 40 nM on h-P2X4R [3], > 50000 nM at h-P2X5 receptor and 1700 ± 90 nM on h-P2X7R [4]. Further, at h-P2X5 receptor, the inhibition at 50 µM is 27%. Also, the “mechanism of receptor inhibition” value at h-P2X4R [6] (h-P2X4R) was “negative allosteric modulator”.
For the compound `Nc1ncnc2c1ncn2[C@@H]1O[C@H](COP(=O)(O)OP(=O)(O)OP(=O)(O)O)[C@@H](O)[C@H]1O` [ATP, adenosine triphosphate, reference compound], the EC50 on h-P2X2R [2] was determined as 1480 nM; at h-P2X4R [3], 9290 nM; on h-P2X5 receptor, 10600 nM; on h-P2X2R [5] it was 1080 nM; on h-P2X4R [6] it was 2590 nM.
